{"source": "patent EP2695600A1", "about": "“Dermal cosmetic compositions having osmoprotecting activity” (Unifarco S.p.A., priority 2012, dated 2014)", "key": {"AQP3": {"system": "AQP3", "assay": "Real time PCR, AQP3 gene expression in RHE", "assay_type": "cell-based, Human", "details": "for AQP3 (RQ): cold stressed RHE", "excerpt": "(§1) An experimental model of epidermal dryness, induced by modified room humidity and temperature conditions, has been used to assess the efficacy of 3 cosmetic products characterized by the following compositions SOLUTION 1 Water + trehalose 1% SOLUTION 2 Water + ectoine 0,5% SOLUTION 3 Water + ectoine 0,5% + trehalose 1%.\n(§2) SkinEthic® Reconstructed Human Epidermis (RHE) of 0,5 cm^2 is a fully differentiated epidermis formed after 17 day of air-lift culture of NHK from skin biopsies in a chemically defined medium. The model reproduces epidermal morphology and it has been fully characterized. The good barrier function, batch reproducibility and low variability in terms of permeability for probe molecules have been described in the Literature compared to human ex-vivo models.\n(§3) For the three steps, ready to use reagents were used. The RNAqueous method is a rapid, phenol free, filter based RNA isolation system used to extract the total RNA from cellular samples. The High Capacity cDNA Reverse Transcription kit was used to synthetize cDNA from RNA. The instrument Applied Biosystems 7500 Fast Real Time PCR with fluorescent-based PCR chemistry, the TaqMan assay, was used to study gene expression of significant biomarkers. Gene expression is the process by which the inheritable information in a gene, such as the DNA sequence, is made into a functional gene product, such as protein or RNA. Relative quantification determines the change in the expression of a nucleic acid sequence in a test sample relative to the same sequence in a calibrator sample. Beta-actin was used as an endogenous control gene to normalize input amounts.\n(§4) Each replicate was assessed in triplicate. At the 2X TaqMan Fast Universal PCR Master Mix was added Taqman gene expression assay and cDNA (25 ng) for a total volume of 25 µL. The Thermal condition steps in the ABI PRISM 7500 Fast are: 95°C 20 sec; 40 cycles (95°C 3 sec +60°C 30 sec).\n(§5) Fluorescence data of the RT-PCR generated by the thermocycler ABI PRISM 7500 Fast, are collected by the internal software SDS 2.0.5 and the Raw Data (RQ study results) are printed and exported in Excel.\n(§6) Because each cycle in the PCR reaction corresponds to a 2-fold increase in PCR product, a difference of one in threshold cycle number represents a 2-fold difference in the expression of a particular gene compared to the calibrator sample and can be considered as significant. 95% of confidence level is used by the software to calculate the errors.\n(§7) The cold stress performed by 30' induction at -20°C corresponds to a block of water flux: the treatment has been done at this moment and followed by 16h and 48h recovery allowing to monitor the dynamic of the genomic response and to study product mechanism of action: the fig.3 described RHE's physiological response of saline solution treatment and glycerol compared to the RHE physiological response of the same treated with SOLUTIONS 1,2,3."}, "HSP1A1": {"system": "HSP1A1", "assay": "Real time PCR, HSP1A1 (HSP 72) gene expression in RHE", "assay_type": "cell-based, Human", "details": "for HSP 72 (RQ): cold stressed RHE, calibrator stressed saline =1 (Fig. 7)", "excerpt": "as §1, §2, §3, §4, §5, §6, §7"}, "[1]": {"system": "Reconstructed Human Epidermis (RHE)", "assay": "LDH quantification (membrane integrity / viability) in cold-stress epidermal dryness model", "assay_type": "cell-based", "excerpt": "as §1, §2\nImmediately after arrival in the laboratory, the RHE were transferred to a 6-well plate previously filled with maintenance medium (1 mL/well) at room temperature and incubated at 37°C, 5% CO2, saturated humidity. The test has been started the day after the arrival.\nThe cell membrane forms a functional barrier around the cell, and traffic into and out of the cell is highly regulated by transporters, receptors and secretion pathways. When cells are damaged, they become 'leaky' and this forms the basis for the second type of assay. Membrane integrity is determined by measuring lactate dehydrogenase (LDH) in the extracellular medium. This enzyme is normally present in the cytosol, and cannot be measured extracellularly unless cell damage has occurred. […] The culture supernatant is collected and incubated with the reaction mixture including the kit (20 min, room T°, in the dark). An increase in the amount of dead or plasma membrane-damaged cells results in an increase of the LDH enzyme activity in the culture media. This increase in the amount of enzyme activity in the supernatant directly correlates to the amount of formazan formed during a defined time period therefore, the amount of color formed in the assay is proportional to the number of lysed cells.\nThe higher optical density has been quantified in the media of stressed RHE and used as 100 % higher citotoxicity value."}}, "data": [{"smiles": "OCC(O)CO", "note": "[Glycerin 5%, Glycerin]", "values": [{"measurement": "AQP3 Gene expression (RQ)", "setting": "AQP3; applied after 30' stress induction, 48h recovery, calibrator CONTROL RHE CN=1 (Fig. 3)", "result": "reduced"}, {"measurement": "AQP3 (RQ)", "setting": "AQP3; 16H recovery, calibrator RHE STRESSED SALINE =1", "result": "0,437"}, {"measurement": "AQP3 (RQ)", "setting": "AQP3; 48H recovery, calibrator RHE STRESSED SALINE =1 (Fig. 4), 2880 min", "result": "0,409"}, {"measurement": "AQP3 (RQ)", "setting": "AQP3; 48H recovery, calibrator RHE STRESSED SALINE =1 (Fig. 4), listed as Glycerol 5%", "result": "reduced"}, {"measurement": "AQP3 Gene expression (RQ)", "setting": "AQP3; non stressed but treated RHE, standard conditions, 16h, calibrator CN 16h=1 (Fig. 1)", "result": "significantly reduced"}, {"measurement": "AQP3 Gene expression (RQ)", "setting": "AQP3; non stressed but treated RHE, standard conditions, 48h, calibrator CN 48h=1 (Fig. 1)", "result": "1,694"}, {"measurement": "HSP 72 (RQ)", "setting": "HSP1A1; 16H recovery", "result": "down-regulation"}, {"measurement": "HSP 72 (RQ)", "setting": "HSP1A1; 16H recovery, 960 min", "result": "0,139"}, {"measurement": "HSP 72 (RQ)", "setting": "HSP1A1; 48H recovery", "result": "0,437"}, {"measurement": "HSP1A1 Gene expression", "setting": "HSP1A1; non stressed but treated RHE, standard condition, 16h, calibrator CN 16h=1 (Fig. 5)", "result": "significantly reduced"}, {"measurement": "HSP1A1 (HSP 72) Gene expression", "setting": "HSP1A1; not stressed RHE, 48h treatment, calibrator CN 48h=1 (Fig. 5)", "result": "over expression"}, {"measurement": "HSP 72 expression", "setting": "HSP1A1; stressed RHE, 16h recovery, calibrator positive stressed control (Fig. 6)", "result": "reduced"}, {"measurement": "citotoxicity (LDH release), verbal assessment", "setting": "[1]; 16h and 48h, standard conditions (for Glycerin 5% also stressed conditions)", "result": "not citotoxic"}, {"measurement": "% VIABILITY", "setting": "[1]; STANDARD conditions (without stress), 30 MIN + 16H", "result": "96,08%"}, {"measurement": "% VIABILITY", "setting": "[1]; STANDARD conditions (without stress), 30 MIN + 48H", "result": "63,14%"}, {"measurement": "% VIABILITY", "setting": "[1]; cold stressed RHE (30 MIN at -20°C), product applied, 16H recovery", "result": "80,70%"}, {"measurement": "% VIABILITY", "setting": "[1]; cold stressed RHE (30 MIN at -20°C), product applied, 48H recovery", "result": "61,11%"}]}]}
